Tested on: DSS (Dahl Salt Sensitive) rats
Test: In vivo efficacy study on blood pressure in DSS rats (telemetry; systolic and diastolic pressure)
Details: for Systolic blood pressure, mean: Compound I-1 50 mg/kg, alone or combined, QD PO
Text: An in vivo study ascertains the effects on blood pressure in DSS (Dahl Salt Sensitive) rats. The DSS hypertensive rat model is a model of hypertension that is sensitive to dietary salt (NaCl), see for example Rapp (1982) Hypertension 4:753-763 and Hegde et al. BMC Pharmacology 2011, 11 (Suppl 1):P33. Under pentobarbital sodium anesthesia, a DSI (Data Sciences International, St. Paul, Minn.) telemetric probe is implanted. The transducer is inserted into abdominal aorta, and the transmitter is implanted into abdominal cavity. During postoperative recovery period, close observation is performed. Analgesics (Buprenorphine, 0.1-0.5 mg/kg, once per day for 1 day) and preventive antibiotics (Cephradine, 10˜15 mg/kg, ip., once per day for 3 days) are administered on a daily basis. Before the treatment period, all animals are fed with 8% high salt food for about 2 weeks. Test compound is formulated in 0.5% HPC and administered by oral gavage. Five groups of animals are treated as follows: 1. Vehicle, 0.5% HPC, QD, PO, N=5 2. Valsartan, 30 mg/kg, QD, PO, N=5 3. Compound I-1, 50 mg/kg, QD, PO, N=6 4. Compound I-1, 15 mg/kg+Valsartan, 30 mg/kg, QD, PO, N=5 5. Compound I-1, 50 mg/kg+Valsartan, 30 mg/kg, QD, PO, N=5 N is the number of animals. The mean arterial pressure, systolic pressure, diastolic pressure and heart rate after administration for each animal are measured. Interim results obtained before full study completion are shown in Tables 18 and 19 (full cohort of animals beyond day 7 were reduced due to some loss). Mean measurements of the systolic (Table 18) and diastolic (Table 19) blood pressures, for the baseline day prior to first treatment and for treatment days 1 and 7 only, in each treatment group, are shown. Measurements obtained every other hour only are shown.

CCCCC(=O)N(Cc1ccc(-c2ccccc2-c2nnn[nH]2)cc1)[C@H](C(=O)O)C(C)C [Valsartan, valsartan]
Systolic blood pressure, mean (Baseline day prior to first treatment, Hour 1, groups Valsartan 30 mg/kg): 157.31
Systolic blood pressure, mean (Baseline day prior to first treatment, Hour 3, groups Valsartan 30 mg/kg): 154.77
Systolic blood pressure, mean (Baseline day prior to first treatment, Hour 5, groups Valsartan 30 mg/kg): 151.17
Systolic blood pressure, mean (Baseline day prior to first treatment, Hour 7, groups Valsartan 30 mg/kg): 154.26
Systolic blood pressure, mean (Baseline day prior to first treatment, Hour 9, groups Valsartan 30 mg/kg): 160.88
Systolic blood pressure, mean (Baseline day prior to first treatment, Hour 11, groups Valsartan 30 mg/kg): 163.83
Systolic blood pressure, mean (Baseline day prior to first treatment, Hour 13, groups Valsartan 30 mg/kg): 164.35
Systolic blood pressure, mean (Baseline day prior to first treatment, Hour 15, groups Valsartan 30 mg/kg): 163.94
Systolic blood pressure, mean (Baseline day prior to first treatment, Hour 17, groups Valsartan 30 mg/kg): 164.12
Systolic blood pressure, mean (Baseline day prior to first treatment, Hour 19, groups Valsartan 30 mg/kg): 166.66
Systolic blood pressure, mean (Baseline day prior to first treatment, Hour 21, groups Valsartan 30 mg/kg): 166.05
Systolic blood pressure, mean (Baseline day prior to first treatment, Hour 23, groups Valsartan 30 mg/kg): 162.95
effect on blood pressure (DSS rats, as compared to animals treated with vehicle alone, interim results): trend for lower blood pressure
Systolic blood pressure, mean (Dosing day 1, Hour 1, Valsartan 30 mg/kg): 159.22
Systolic blood pressure, mean (Dosing day 1, Hour 3, Valsartan 30 mg/kg): 149.24
Systolic blood pressure, mean (Dosing day 1, Hour 5, Valsartan 30 mg/kg): 152.75
Systolic blood pressure, mean (Dosing day 1, Hour 7, Valsartan 30 mg/kg): 160.54
Systolic blood pressure, mean (Dosing day 1, Hour 9, Valsartan 30 mg/kg): 165.09
Systolic blood pressure, mean (Dosing day 1, Hour 11, Valsartan 30 mg/kg): 166.16
Systolic blood pressure, mean (Dosing day 1, Hour 13, Valsartan 30 mg/kg): 162.84
Systolic blood pressure, mean (Dosing day 1, Hour 15, Valsartan 30 mg/kg): 162.88
Systolic blood pressure, mean (Dosing day 1, Hour 17, Valsartan 30 mg/kg): 169.80
Systolic blood pressure, mean (Dosing day 1, Hour 19, Valsartan 30 mg/kg): 162.27
Systolic blood pressure, mean (Dosing day 1, Hour 21, Valsartan 30 mg/kg): 163.01
Systolic blood pressure, mean (Dosing day 1, Hour 23, Valsartan 30 mg/kg): 155.05
Systolic blood pressure, mean (Dosing day 7, Hour 1, Valsartan 30 mg/kg): 165.60
Systolic blood pressure, mean (Dosing day 7, Hour 3, Valsartan 30 mg/kg): 143.04
Systolic blood pressure, mean (Dosing day 7, Hour 5, Valsartan 30 mg/kg): 142.52
Systolic blood pressure, mean (Dosing day 7, Hour 7, Valsartan 30 mg/kg): 153.17
Systolic blood pressure, mean (Dosing day 7, Hour 9, Valsartan 30 mg/kg): 170.26
Systolic blood pressure, mean (Dosing day 7, Hour 11, Valsartan 30 mg/kg): 173.95
Systolic blood pressure, mean (Dosing day 7, Hour 13, Valsartan 30 mg/kg): 175.24
Systolic blood pressure, mean (Dosing day 7, Hour 15, Valsartan 30 mg/kg): 177.02
Systolic blood pressure, mean (Dosing day 7, Hour 17, Valsartan 30 mg/kg): 176.02
Systolic blood pressure, mean (Dosing day 7, Hour 19, Valsartan 30 mg/kg): 176.83
Systolic blood pressure, mean (Dosing day 7, Hour 21, Valsartan 30 mg/kg): 164.22
Systolic blood pressure, mean (Dosing day 7, Hour 23, Valsartan 30 mg/kg): 163.41
Diastolic blood pressure, Mean (Valsartan 30 mg/kg, Baseline day, Hour 1): 106.03
Diastolic blood pressure, Mean (Valsartan 30 mg/kg, Baseline day, Hour 3): 102.82
Diastolic blood pressure, Mean (Valsartan 30 mg/kg, Baseline day, Hour 5): 100.19
Diastolic blood pressure, Mean (Valsartan 30 mg/kg, Baseline day, Hour 7): 103.02
Diastolic blood pressure, Mean (Valsartan 30 mg/kg, Baseline day, Hour 9): 110.48
Diastolic blood pressure, Mean (Valsartan 30 mg/kg, Baseline day, Hour 11): 114.29
Diastolic blood pressure, Mean (Valsartan 30 mg/kg, Baseline day, Hour 13): 115.22
Diastolic blood pressure, Mean (Valsartan 30 mg/kg, Baseline day, Hour 15): 113.98
Diastolic blood pressure, Mean (Valsartan 30 mg/kg, Baseline day, Hour 17): 114.14
Diastolic blood pressure, Mean (Valsartan 30 mg/kg, Baseline day, Hour 19): 116.35
Diastolic blood pressure, Mean (Valsartan 30 mg/kg, Baseline day, Hour 21): 116.78
Diastolic blood pressure, Mean (Valsartan 30 mg/kg, Baseline day, Hour 23): 111.79
Diastolic blood pressure, Mean (Valsartan 30 mg/kg, Dosing day 1, Hour 1): 107.73
Diastolic blood pressure, Mean (Valsartan 30 mg/kg, Dosing day 1, Hour 3): 101.25
Diastolic blood pressure, Mean (Valsartan 30 mg/kg, Dosing day 1, Hour 5): 98.63
Diastolic blood pressure, Mean (Valsartan 30 mg/kg, Dosing day 1, Hour 7): 100.29
Diastolic blood pressure, Mean (Valsartan 30 mg/kg, Dosing day 1, Hour 9): 109.35
Diastolic blood pressure, Mean (Valsartan 30 mg/kg, Dosing day 1, Hour 11): 115.04
Diastolic blood pressure, Mean (Valsartan 30 mg/kg, Dosing day 1, Hour 13): 116.06
Diastolic blood pressure, Mean (Valsartan 30 mg/kg, Dosing day 1, Hour 15): 113.61
Diastolic blood pressure, Mean (Valsartan 30 mg/kg, Dosing day 1, Hour 17): 112.82
Diastolic blood pressure, Mean (Valsartan 30 mg/kg, Dosing day 1, Hour 19): 119.69
Diastolic blood pressure, Mean (Valsartan 30 mg/kg, Dosing day 1, Hour 21): 112.65
Diastolic blood pressure, Mean (Valsartan 30 mg/kg, Dosing day 1, Hour 23): 112.26
Diastolic blood pressure, Mean (Valsartan 30 mg/kg, Dosing day 7, Hour 1): 113.86
Diastolic blood pressure, Mean (Valsartan 30 mg/kg, Dosing day 7, Hour 3): 94.17
Diastolic blood pressure, Mean (Valsartan 30 mg/kg, Dosing day 7, Hour 5): 93.33
Diastolic blood pressure, Mean (Valsartan 30 mg/kg, Dosing day 7, Hour 7): 102.69
Diastolic blood pressure, Mean (Valsartan 30 mg/kg, Dosing day 7, Hour 9): 117.65
Diastolic blood pressure, Mean (Valsartan 30 mg/kg, Dosing day 7, Hour 11): 123.73
Diastolic blood pressure, Mean (Valsartan 30 mg/kg, Dosing day 7, Hour 13): 125.63
Diastolic blood pressure, Mean (Valsartan 30 mg/kg, Dosing day 7, Hour 15): 126.20
Diastolic blood pressure, Mean (Valsartan 30 mg/kg, Dosing day 7, Hour 17): 124.23
Diastolic blood pressure, Mean (Valsartan 30 mg/kg, Dosing day 7, Hour 19): 127.67
Diastolic blood pressure, Mean (Valsartan 30 mg/kg, Dosing day 7, Hour 21): 112.77
Diastolic blood pressure, Mean (Valsartan 30 mg/kg, Dosing day 7, Hour 23): 112.12

Reference: US11426375B2, “Substituted bisphenyl butanoic ester derivatives as NEP inhibitors” (NOVARTIS AG, priority 2019, dated 2022)
